# Test results reported in patent publication US20240117417A1, “CELL ENGINEERING COMPOSITIONS AND METHODS USING FLUOROGENIC OLIGONUCLEOTIDE SIGNALING PROBES AND FLOW CYTOMETRY” (Secondcell Bio, LLC, priority 2021, published 2024).
# Counter-ions that a name gives are not always drawn.
# Test system: GABAA receptor ion channel subunit combinations α1β3γ2s, α2β3γ2s, α3β3γ2s or α5β3γ2s
# Test: HTS of LOPAC library on the panel of GABAA cell lines, fluorescent membrane potential cell-based assay
# Conditions: not given
# Protocol: Production of cell lines: Each gene of interest was subcloned into an independent mammalian expression vector containing a detection tag and drug selectable marker and transfected into HEK293T and CHO cells cultured using DMEM supplemented with 50 mL fetal bovine serum, a 4 mM L-Glutamine, 10 mM Hepes pH 7.4. After 1 to 3 days cells were transferred to fresh media containing mild selective pressure for 7 to 14 days. On the day of the experiment, each well of four to six 24-well tissue culture plates was plated with 200 ul to 400 ul of transfected cells at 1.25 to 2×10^6 cells/mL in serum-free media and exposed to differentially-labeled signaling probes that can hybridize with the expression products. For each well, 1.7 to 2.5 uL of each probe at a concentration of 2.5 to 5 uM was added to 50 uL of serum free media in tube A and 0.3 to 0.75 uL of transfection reagent, using Lipofectamine for HEK cells (Thermo Fisher 18324) and jetPEI for CHO (Polyplus Transfection 101) was added to tube B. The contents of tubes A and B were mixed and incubated at room temperature for 25 to 30 minutes prior to addition to the well. Following a 1 to 2 hour incubation at 37° C. in a tissue culture incubator, serum-free media was added to the well up to a total volume of 1 mL. The plates were spun at 2,000 RPM for 4 minutes. 750 uL of media was aspirated and replaced with 250 uL of fresh serum-free media. The cells were incubated for an additional 2 to 2.5 hours then used to isolate individual positive cells using Beckman Coulter Epic Altra or Becton Dickinson FACS Aria flow cytometers.
# (§1) Cell-based Assays: Functional testing using fluorescent cell-based assays in the absence of any antibiotic-mediated selectable pressure was performed over time (typically for at least 4 to 6 weeks) to identify inherently stable clones. Commonly available fluorescent membrane potential and calcium flux kits and reagents were used for fluorescent cell-based assays in 96-well and 384-well plates using the Molecular Devices FLIPR 3 and Hamamatsu FDSS 6000 plate readers as described (Shekdar 2011; Shekdar and Sawchuk 2012; Shekdar and Venkatachalan 2012, Shekdar 2017). Electrophysiology of ion channel cell lines was obtained using the Nanion Technologies Patchliner patch clamp system. The patch clamp recordings were conducted according to Nanion's standard procedure (Obergrussberger 2014). Currents were measured using the whole-cell configuration. The extracellular solution contained the following: 140 mM NaCl, 4 mM KCl, 1 mM MgCl2, 2 mM CaCl2), 5 mM glucose, 10 mM Hepes, pH 7.4 (adjusted with NaOH). The intracellular solution for sodium current recordings contained the following: 50 mM CsCl, 10 mM NaCl, 60 mM CsF, 20 mM EGTA, 10 mM Hepes, pH 7.2 (adjusted with CsOH). For transient transfection studies, Fugene 6 was used to transfect expression plasmid into cells cultured as above and cells were assayed three days post-transfection.
row,Compound,HTS hit: activated at least one of the GABAA cell lines at least as much as GABA itself
1,CC(C)c1cccc(C(C)C)c1O [Propofol],activated at least one of the cell lines at least as much as GABA itself
2,C[C@]12CC[C@@H](O)C[C@@H]1CC[C@@H]1[C@@H]2CC[C@]2(C)C(=O)CC[C@@H]12 [Androsterone],identified

# Same assay, conditions: LOPAC (Sigma 1280) screen on panel of four GABAA cell lines
row,Compound,HTS hit: activated at least one of the GABAA cell lines at least as much as GABA itself
1,NCCCC(=O)O [GABA],activated at least one of the cell lines at least as much as GABA itself
2,NCc1cc(=O)[nH]o1 [Muscimol hydrobromide],activated at least one of the cell lines at least as much as GABA itself
3,COc1cc(/C=C(\C#N)C(=O)c2ccc(O)c(O)c2)cc(I)c1O [I-OMe-Tyrphostin AG 538],identified
4,O=S(=O)(O)C1CCNCC1 [Piperidine-4-sulphonic acid],activated at least one of the cell lines at least as much as GABA itself
5,"C[C@]12CC[C@@H](O)C[C@@H]1CC[C@@H]1[C@@H]2CC[C@]2(C)[C@@H](C(=O)CO)CC[C@@H]12 [3-alpha, 21-dihydroxy-5-alpha-pregnan-20-one]",activated at least one of the cell lines at least as much as GABA itself
6,O=C(Nc1ccc([N+](=O)[O-])cc1Cl)c1cc(Cl)ccc1O [Niclosamide],identified
7,"CC(=O)[C@H]1CC[C@H]2[C@@H]3CC[C@H]4C[C@H](O)CC[C@]4(C)[C@H]3C(=O)C[C@]12C [5-alpha-pregnan-3alpha-ol-11,20-dione]",activated at least one of the cell lines at least as much as GABA itself
8,CCCCNc1c(C(=O)OCC)c(C)nc2c1cnn2CC [Tracazolate],activated at least one of the cell lines at least as much as GABA itself
9,CC(C)(C)c1cc(C=C(C#N)C#N)cc(C(C)(C)C)c1O [Tyrphostin A9],identified
10,CC(=O)[C@H]1CC[C@H]2[C@@H]3CC[C@H]4C[C@H](O)CC[C@]4(C)[C@H]3CC[C@]12C [5-alpha-pegnan-3alpha-ol-20-one],activated at least one of the cell lines at least as much as GABA itself
11,Ivermectin,identified
12,OCCN(CCO)c1nc(N2CCCCC2)c2nc(N(CCO)CCO)nc(N3CCCCC3)c2n1 [Dipyridamole],identified
13,CN1C(=O)CCS(=O)(=O)C1c1ccc(Cl)cc1 (centres unmarked) [Chlormezanone],identified
14,O=C(O)C1=CCNCC1 [Isoguvacine hydrochloride],activated at least one of the cell lines at least as much as GABA itself

# Molecular target: T1, αβγ-ENaC (Homo sapiens, UniProt P37088+P51168+P51170)
# T1 construct: expressed in transfected cells
# T1 sequence (P51170 whole entry): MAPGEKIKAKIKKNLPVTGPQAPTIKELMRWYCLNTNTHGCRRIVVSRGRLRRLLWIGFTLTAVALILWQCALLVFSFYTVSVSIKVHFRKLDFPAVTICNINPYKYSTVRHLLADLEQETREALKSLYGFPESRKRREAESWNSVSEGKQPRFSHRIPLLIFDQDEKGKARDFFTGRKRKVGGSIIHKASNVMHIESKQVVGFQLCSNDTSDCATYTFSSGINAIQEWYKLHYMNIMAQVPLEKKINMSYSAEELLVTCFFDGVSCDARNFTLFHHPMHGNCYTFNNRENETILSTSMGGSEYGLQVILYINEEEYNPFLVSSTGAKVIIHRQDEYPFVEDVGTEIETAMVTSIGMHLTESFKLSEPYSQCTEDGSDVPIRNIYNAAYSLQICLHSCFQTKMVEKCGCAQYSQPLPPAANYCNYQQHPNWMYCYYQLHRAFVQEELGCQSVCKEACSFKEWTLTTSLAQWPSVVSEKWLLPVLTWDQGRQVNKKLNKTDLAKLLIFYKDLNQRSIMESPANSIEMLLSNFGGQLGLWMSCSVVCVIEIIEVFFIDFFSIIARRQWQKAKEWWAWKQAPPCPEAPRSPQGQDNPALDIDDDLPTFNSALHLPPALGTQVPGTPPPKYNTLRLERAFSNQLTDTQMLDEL
# T1 sequence (P51168 whole entry): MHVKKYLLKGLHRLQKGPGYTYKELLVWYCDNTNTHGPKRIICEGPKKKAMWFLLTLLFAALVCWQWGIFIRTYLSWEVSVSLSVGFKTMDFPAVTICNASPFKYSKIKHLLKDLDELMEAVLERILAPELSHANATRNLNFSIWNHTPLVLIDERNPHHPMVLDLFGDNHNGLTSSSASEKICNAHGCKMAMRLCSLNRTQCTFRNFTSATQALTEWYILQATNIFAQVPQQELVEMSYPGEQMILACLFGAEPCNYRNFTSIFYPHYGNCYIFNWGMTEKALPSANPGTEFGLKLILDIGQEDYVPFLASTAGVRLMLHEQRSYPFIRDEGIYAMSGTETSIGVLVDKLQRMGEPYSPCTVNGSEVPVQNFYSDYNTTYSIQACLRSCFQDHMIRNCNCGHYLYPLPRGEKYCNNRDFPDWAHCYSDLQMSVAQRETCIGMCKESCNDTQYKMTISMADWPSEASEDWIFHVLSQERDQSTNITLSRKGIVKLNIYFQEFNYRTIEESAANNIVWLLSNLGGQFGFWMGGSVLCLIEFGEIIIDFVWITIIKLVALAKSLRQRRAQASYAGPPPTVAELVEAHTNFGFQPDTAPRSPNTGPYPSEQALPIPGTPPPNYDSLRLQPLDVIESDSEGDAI
# T1 sequence (P37088 whole entry): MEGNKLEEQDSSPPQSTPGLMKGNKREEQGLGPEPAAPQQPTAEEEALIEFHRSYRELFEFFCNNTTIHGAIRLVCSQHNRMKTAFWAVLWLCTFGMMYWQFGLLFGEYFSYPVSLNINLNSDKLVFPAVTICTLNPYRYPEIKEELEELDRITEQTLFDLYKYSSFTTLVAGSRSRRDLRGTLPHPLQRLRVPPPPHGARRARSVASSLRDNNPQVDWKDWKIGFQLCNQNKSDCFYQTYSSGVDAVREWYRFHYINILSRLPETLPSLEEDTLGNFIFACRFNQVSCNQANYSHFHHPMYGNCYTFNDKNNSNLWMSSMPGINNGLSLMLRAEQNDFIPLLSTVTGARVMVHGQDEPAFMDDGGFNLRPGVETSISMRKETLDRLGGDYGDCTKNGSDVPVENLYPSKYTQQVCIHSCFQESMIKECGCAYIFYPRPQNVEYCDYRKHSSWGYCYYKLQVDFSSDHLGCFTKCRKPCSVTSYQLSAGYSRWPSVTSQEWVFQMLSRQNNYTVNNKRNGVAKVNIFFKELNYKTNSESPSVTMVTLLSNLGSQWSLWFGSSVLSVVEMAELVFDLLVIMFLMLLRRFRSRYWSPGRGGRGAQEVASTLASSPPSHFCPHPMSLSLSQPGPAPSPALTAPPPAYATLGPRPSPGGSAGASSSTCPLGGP
# Test: cell-based assay selective for αβγ-ENaC activity (response to sodium increase)
# Conditions: 75 mM increase in sodium concentration, FIG. 23B right panel
# Protocol: (§2) Production of cell lines: Each gene of interest was subcloned into an independent mammalian expression vector containing a detection tag and drug selectable marker and transfected into HEK293T and CHO cells cultured using DMEM supplemented with 50 mL fetal bovine serum, a 4 mM L-Glutamine, 10 mM Hepes pH 7.4. After 1 to 3 days cells were transferred to fresh media containing mild selective pressure for 7 to 14 days. […]
# (§3) Cell-based Assays: Functional testing using fluorescent cell-based assays in the absence of any antibiotic-mediated selectable pressure was performed over time (typically for at least 4 to 6 weeks) to identify inherently stable clones. Commonly available fluorescent membrane potential and calcium flux kits and reagents were used for fluorescent cell-based assays in 96-well and 384-well plates using the Molecular Devices FLIPR 3 and Hamamatsu FDSS 6000 plate readers as described (Shekdar 2011; Shekdar and Sawchuk 2012; Shekdar and Venkatachalan 2012, Shekdar 2017). […] Currents were measured using the whole-cell configuration. […]
# (§4) Finally, Chromovert® Technology was used to create a cell line for ENaC. […] One potentiator identified during HTS of proteolyzed ENaC was assessed in human sensory studies where it was confirmed to enhance the salty taste of sodium chloride, as shown in FIG. 23E.
row,Compound,effect on the response of the αβγ-ENaC cell line to a sodium increase
1,N=C(N)NC(=O)c1nc(Cl)c(N)nc1N [amiloride],inhibition of the response to a 75 mM increase in sodium concentration

# Test system: salty taste of sodium chloride
# Test: human sensory taste testing, pairwise comparisons
# Type: in vivo
# Conditions: pairwise comparisons of 45 mM NaCl+15 pg STE1/mL
# Protocol: The sensory studies used pairwise comparisons of 45 mM NaCl+15 pg STE1/mL using a human sensory taste testing protocol approved by an institutional review board, 13 out of 15 participants selected the sample containing STE1 as more salty.
row,Compound,participants who selected the sample containing STE1 as more salty
1,"CCCc1ccc(OC(=O)c2ccco2)cc1 [STE1, 4-propylphenyl 2-furoate]",13 out of 15

# Test system: CFTR
# Test: functional cell-based assay of the CFTR cell line (response to Forskolin)
# Conditions: FIG. 22A left panel, read-out: EC50 value, dose-response curve for the CFTR cell line
# Protocol: as §2, with “days. On the day of the experiment, each well of four to six 24-well tissue culture plates was plated with 200 ul to 400 ul of transfected cells at 1.25 to 2×10^6 cells/mL in serum-free media and exposed to differentially-labeled signaling probes that can hybridize with the expression products.” for “days.”
# as §3
row,Compound,EC50 [nM]
1,C=C[C@@]1(C)CC(=O)[C@]2(O)[C@@]3(C)[C@@H](O)CCC(C)(C)[C@@H]3[C@H](O)[C@H](OC(C)=O)[C@@]2(C)O1 [Forskolin],256

# Test system: proteolyzed αβγ-ENaC
# Test: HTS of a compound library against proteolyzed ENaC cell line
# Type: cell-based
# Conditions: not given
# Protocol: as §1, with “The intracellular solution for sodium current recordings contained the following: 50 mM CsCl, 10 mM NaCl, 60 mM CsF, 20 mM EGTA, 10 mM Hepes, pH 7.2 (adjusted with CsOH). For transient transfection studies, Fugene 6 was used to transfect expression plasmid into cells cultured as above and cells were assayed three days post-transfection.” left out
# as §4
row,Compound,activity identified during HTS of proteolyzed αβγ-ENaC
1,"CCCc1ccc(OC(=O)c2ccco2)cc1 [STE1, 4-propylphenyl 2-furoate]",potentiator of proteolyzed αβγ-ENaC
